Among the data in patent US10626094B2 (La Jolla Institute of Allergy & Immunology, priority 2014, dated 2020) are IC50 values, retold here.

In the first test the target is LMPTP-A (Low Molecular Weight Protein Tyrosine Phosphatase-A) enzyme (Homo sapiens (Human), UniProt P24666). Kind of test: LMPTP primary screening / LMPTP (OMFP) enzyme inhibition assay, fluorescence intensity. In kind it is biochemical. Particulars: IC50 (nM), LMPTP-A, OMFP substrate, method of Example 2. As for the experimental part: This assay attempts to identify inhibitors of the LMPTP-A (Low Molecular Weight Protein Tyrosine Phosphatase-A) enzyme. It is run in 1536-well format and is measured via fluorescence intensity.
LMPTP-A (Low Molecular Weight Protein Tyrosine Phosphatase-A) enzyme, sequence (P24666 whole entry): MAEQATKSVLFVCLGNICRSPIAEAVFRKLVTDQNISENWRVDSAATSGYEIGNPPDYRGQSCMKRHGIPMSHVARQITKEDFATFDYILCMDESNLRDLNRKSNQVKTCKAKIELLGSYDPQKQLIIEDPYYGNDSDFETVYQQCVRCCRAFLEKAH
A listing of materials is provided: • Item, source, catalog no. • LMPTP-A Enzyme Stock Solution (4.22 mg/ml or 206.8 μM), SBMRI Protein Facility, • N/A • OMFP, Sigma, M2629-100MG • Bis-Tris pH 6.0, Fisher Sci, BP301-100 • Triton-X 100, Sigma, T9284 • DTT, Sigma, D9779 • Mol. Grade Water, Mediatech, Inc., 46-000-CM • 1536-well black High base opaque bottom plate, Nexus Biosystems, 00019120
Final assay conditions are: • 0.625 nM LMPTP-A Enzyme • 400 μM OMFP • 50 mM Bis-Tris pH 6.0 • 1 mM DTT • 0.01% Triton-X 100 • 20 μM test compound • 3% DMSO (2% from substrate and 1% from compounds) • 6 μL reaction volume • 50 minutes incubation at room temp
Assay Procedure • 1. Prepare Reagents as described in section F. Recipe. • 2. Using LabCyte Echo, transfer 60 nL from 2 mM test compound source plate into assay plate Col. 5-48 (final concentration of test compounds is 20 μM). 60 nL of DMSO should be transferred to col. 1-4 for positive and negative control wells. • 3. Spin plates at 1000 rpm for 1 minute in centrifuge. • 4. […] Using the Bioraptr, add 3 μL/well of enzyme solution to col. 3-48. • 6. Using the Bioraptr, add 3 μL/well of substrate solution to col. 1-48. • 7. Spin plates at 1000 rpm for 1 minute in centrifuge. • 8. Incubate plates in the dark at room temperature for 50 minutes. • 9. Read plates on PerkinElmer Viewlux using a FI protocol.
The term IC50 denotes the concentration that inhibits the measured activity by half. Regarding `COc1ccc(-c2cc(Nc3ccccn3)c3ccccc3n2)cc1` [Compound G63, [2-(4-Methoxy-phenyl)-quinolin-4-yl]-pyridin-2-yl-amine], the IC50 was in the range of 801 to 5000 nM.

Still in this test, the particulars now being: LMPTP-A, OMFP substrate, method of Example 2; read-out: IC50.
As to `COc1ccc(-c2cc(Nc3ccc(F)cc3)c3ccccc3n2)cc1` [Compound G39, (4-fluorophenyl)[2-(4-methoxyphenyl)(4-quinolyl)]amine], the IC50 was 801 to 5000 nM.

`COc1ccc(-c2cc(Nc3ccc(Cl)cc3)c3ccccc3n2)cc1` [Compound G40, (4-chlorophenyl)[2-(4-methoxyphenyl)(4-quinolyl)]amine]: the IC50 lay in the range of 801 to 5000 nM.

Regarding `COc1ccc(-c2cc(Nc3ccc(Br)cc3)c3ccccc3n2)cc1` [Compound G41, (4-bromophenyl)[2-(4-methoxyphenyl)(4-quinolyl)]amine], the IC50 is 801 to 5000 nM.

Regarding `COc1ccc(-c2cc(Nc3ccc(C(F)(F)F)cc3)c3ccccc3n2)cc1` [Compound G42, [2-(4-methoxyphenyl)(4-quinolyl)][4-(trifluoromethyl)phenyl]amine], the IC50 lay within 801 to 5000 nM.

With `COc1ccc(-c2cc(Nc3ccc(C)cc3)c3ccccc3n2)cc1` [Compound G43, [2-(4-methoxyphenyl)(4-quinolyl)](4-methylphenyl)amine], the IC50 fell in the range of 801 to 5000 nM.

Regarding `COc1ccc(-c2cc(Nc3ccc(OC(C)C)cc3)c3ccccc3n2)cc1` [Compound G44, [2-(4-methoxyphenyl)(4-quinolyl)][4-(methylethoxy)phenyl]amine], the IC50 was in the range of 801 to 5000 nM.

Take `CCOC(=O)c1ccc(Nc2cc(-c3ccc(OC)cc3)nc3ccccc23)cc1` [Compound G45, ethyl 4-{[2-(4-methoxyphenyl)-4-quinolyl]amino}benzoate]: the IC50 was greater than 5000 nM.

For `COc1ccc(-c2cc(Nc3ccn(C)n3)c3ccccc3n2)cc1` [Compound G46], the IC50 lay within 801 to 5000 nM.

`COc1ccc(-c2cc(Nc3ccc(C#N)cc3)c3ccccc3n2)cc1` [Compound G47, 4-{[2-(4-methoxyphenyl)-4-quinolyl]amino}benzenecarbonitrile]: the IC50 fell in the range of 200 to 800 nM.

Take `COc1ccc(-c2cc(Nc3ccc(OC)nc3)c3ccccc3n2)cc1` [Compound G48, (6-methoxy(3-pyridyl))[2-(4-methoxyphenyl)(4-quinolyl)]amine]: the IC50 was in the range of 200 to 800 nM.

For `COc1ccc(-c2cc(Nc3ccc(F)c(Cl)c3)c3ccccc3n2)cc1` [Compound G49, (3-chloro-4-fluorophenyl)[2-(4-methoxyphenyl)(4-quinolyl)]amine], the IC50 was in the range of 801 to 5000 nM.

`COc1ccc(-c2cc(Nc3cccc(CN4CCCC4)c3)c3ccccc3n2)cc1` [Compound G50, [2-(4-methoxyphenyl)(4-quinolyl)][3-(pyrrolidinylmethyl)phenyl]amine]: the IC50 is 200 to 800 nM.

Take `COc1ccc(-c2cc(Nc3ccc(CN4CCOCC4)cc3)c3ccccc3n2)cc1` [Compound G52, [2-(4-methoxyphenyl)(4-quinolyl)][4-(morpholin-4-ylmethyl)phenyl]amine]: the IC50 was 801 to 5000 nM.

As for `COc1ccc(-c2cc(Nc3cccc(CN4CCCCC4)c3)c3ccccc3n2)cc1` [Compound G54, [2-(4-methoxyphenyl)(4-quinolyl)][3-(piperidylmethyl)phenyl]amine], the IC50 was 801 to 5000 nM.

For the molecule `COc1ccc(-c2cc(Nc3cccc(CN4CCOCC4)c3)c3ccccc3n2)cc1` [Compound G55, [2-(4-methoxyphenyl)(4-quinolyl)][3-(morpholin-4-ylmethyl)phenyl]amine], the IC50 lay within 200 to 800 nM.

`COc1ccc(-c2cc(Nc3cccc(CN4CCSCC4)c3)c3ccccc3n2)cc1` [Compound G56, [2-(4-methoxyphenyl)(4-quinolyl)][3-(1,4-thiazaperhydroin-4-ylmethyl)phenyl]amine]: the IC50 is 200 to 800 nM.

For `COc1ccc(-c2cc(Nc3cccc(CN4CCCN(C)CC4)c3)c3ccccc3n2)cc1` [Compound G57, [2-(4-methoxyphenyl)(4-quinolyl)]{3-[(4-methyl(1,4-diazaperhydroepinyl))methyl]phenyl}amine], the IC50 is 200 to 800 nM.

For the molecule `COc1ccc(-c2cc(Nc3cccc(CN(C)C)c3)c3ccccc3n2)cc1` [Compound G58, [(3-{[2-(4-methoxyphenyl)(4-quinolyl)]amino}phenyl)methyl]dimethylamine], the IC50 was in the range of 200 to 800 nM.

As for `COc1ccc(-c2cc(Nc3cccc(CN4CCNCC4)c3)c3ccccc3n2)cc1` [Compound G59, [2-(4-methoxyphenyl)(4-quinolyl)][3-(piperazinylmethyl)phenyl]amine], the IC50 lay in the range of 801 to 5000 nM.

Regarding `COc1ccc(-c2cc(Nc3cccc(CN4CCN(C)CC4)c3)c3ccccc3n2)cc1` [Compound G60, [2-(4-methoxyphenyl)(4-quinolyl)]{3-[(4-methylpiperazinyl)methyl]phenyl}amine], the 50% inhibitory concentration (IC50) was 801 to 5000 nM.

As to `CCN(CC)Cc1cccc(Nc2cc(-c3ccc(OC)cc3)nc3ccccc23)c1` [Compound G61, (3-Diethylaminomethyl-phenyl)-[2-(4-methoxy-phenyl)-quinolin-4-yl]-amine], the IC50 fell in the range of 801 to 5000 nM.

Take `COc1ccc(-c2cc(Nc3cccc(CN4CCS(=O)(=O)CC4)c3)c3ccccc3n2)cc1` [Compound G62, 4-[(3-{[2-(4-methoxyphenyl)-4-quinolyl]amino}phenyl)methyl]-1,4-thiazaperhydroine-1,1-dione]: the IC50 lay in the range of 801 to 5000 nM.

With `COc1ccc(-c2cc(Nc3cccnc3)c3ccccc3n2)cc1` [Compound G64], the concentration for half-maximal inhibition (IC50) was 801 to 5000 nM.

For `COc1ccc(-c2cc(Nc3ccncc3)c3ccccc3n2)cc1` [Compound G65, [2-(4-methoxyphenyl)(4-quinolyl)]-4-pyridylamine], the IC50 fell in the range of 801 to 5000 nM.

Consider `COc1ccc(-c2cc(Nc3cncnc3)c3ccccc3n2)cc1` [Compound G66, [2-(4-methoxyphenyl)(4-quinolyl)]pyrimidin-5-ylamine], for which the IC50 lay within 801 to 5000 nM.

Take `COc1ccc(-c2cc(Nc3cccc(C)n3)c3ccccc3n2)cc1` [Compound G67, [2-(4-methoxyphenyl)(4-quinolyl)](6-methyl(2-pyridyl))amine]: the IC50 was 801 to 5000 nM.

Regarding `COc1ccc(-c2cc(Nc3ccc4ccccc4n3)c3ccccc3n2)cc1` [Compound G68, [2-(4-methoxyphenyl)(4-quinolyl)]-2-quinolylamine], the IC50 was 801 to 5000 nM.

For the molecule `COc1ccc(-c2cc(Nc3cccc4cccnc34)c3ccccc3n2)cc1` [Compound G69], the IC50 is greater than 5000 nM.

As to `COc1ccc(-c2cc(Nc3ccncn3)c3ccccc3n2)cc1` [Compound G70, [2-(4-methoxyphenyl)(4-quinolyl)]pyrimidin-4-ylamine], the IC50 lay within 801 to 5000 nM.

`COc1ccc(-c2cc(Nc3ccnnc3)c3ccccc3n2)cc1` [Compound G71, [2-(4-methoxyphenyl)(4-quinolyl)]pyridazin-4-ylamine]: the IC50 fell in the range of 801 to 5000 nM.

As to `COc1ccc(-c2cc(Nc3ncccn3)c3ccccc3n2)cc1` [Compound G72, [2-(4-methoxyphenyl)(4-quinolyl)]pyrimidin-2-ylamine], the IC50 was in the range of 801 to 5000 nM.

On to `COc1ccc(-c2cc(Nc3cncc(C)n3)c3ccccc3n2)cc1` [Compound G73, [2-(4-methoxyphenyl)(4-quinolyl)](6-methylpyrazin-2-yl)amine], for which the IC50 lay within 801 to 5000 nM.

As to `COc1ccc(-c2cc(NCc3ccc(Cl)cc3)c3ccccc3n2)cc1` [Compound G74, [(4-chlorophenyl)methyl][2-(4-methoxyphenyl)(4-quinolyl)]amine], the IC50 fell in the range of 801 to 5000 nM.

`COc1ccc(-c2cc(NCc3ccccc3)c3ccccc3n2)cc1` [Compound G75, [2-(4-methoxyphenyl)(4-quinolyl)]benzylamine]: the IC50 was 801 to 5000 nM.

For `COc1ccc(-c2cc(NC(C)c3ccccc3)c3ccccc3n2)cc1` (centres unmarked) [Compound G76], the half-inhibitory concentration (IC50) lay within 801 to 5000 nM.

Turning to `COc1ccc(-c2cc(NCc3ccccc3OC)c3ccccc3n2)cc1` [Compound G77, [2-(4-methoxyphenyl)(4-quinolyl)][(2-methoxyphenyl)methyl]amine], the IC50 lay within 801 to 5000 nM.

As to `COc1ccc(-c2cc(NCc3cccc(OC)c3)c3ccccc3n2)cc1` [Compound G78, [2-(4-methoxyphenyl)(4-quinolyl)][(3-methoxyphenyl)methyl]amine], the IC50 is 801 to 5000 nM.

For the molecule `COc1ccc(CNc2cc(-c3ccc(OC)cc3)nc3ccccc23)cc1` [Compound G79, [2-(4-methoxyphenyl)(4-quinolyl)][(4-methoxyphenyl)methyl]amine], the 50% inhibitory concentration (IC50) lay within 801 to 5000 nM.

Turning to `COc1ccc(-c2cc(NCc3ccccc3C(F)(F)F)c3ccccc3n2)cc1` [Compound G80, [2-(4-methoxyphenyl)(4-quinolyl)]{[2-(trifluoromethyl)phenyl]methyl}amine], the IC50 was in the range of 801 to 5000 nM.

On to `COc1ccc(-c2cc(NCc3ccc(C(F)(F)F)cc3)c3ccccc3n2)cc1` [Compound G81, [2-(4-methoxyphenyl)(4-quinolyl)]{[4-(trifluoromethyl)phenyl]methyl}amine], for which the IC50 lay within 801 to 5000 nM.
